Here are results for one molecule from BindingDB's records for doi:10.1021/jm00056a003 (Universit&#224, 1993).

The assay has as its target L-type calcium channel (Felis catus). Briefly: Inhibition of (-)-[3H]- D-888 binding to L-type calcium channels in kitten heart ventricle membranes.

Usually IC50 stands for the concentration that inhibits the measured activity by half. Regarding `COc1ccc(CCN(C)C2CCCC(C(C#N)(c3ccc(OC)c(OC)c3)C(C)C)C2)cc1OC` (stereo unspecified) [(RSR) 2-(3,4-Dimethoxy-phenyl)-2-(3-{[2-(3,4-dimethoxy-phenyl)-ethyl]-methyl-amino}-cyclohexyl)-3-methyl-butyronitrile], the IC50 came out at 260 nM.
